Assay results as given in patent US20030153512A1 (priority 2000, published 2003).
Values after ≈ are worked out from the molar mass of the structure shown.

Assays:
[1] = Water solubility of saturated solutions in argon-saturated water, content by HPLC; type: physicochemical; details: saturated solution at room temperature in argon-saturated water, HPLC UV 420 nm
Description: HPLC conditions: column lichrospher-100-RP18-5 μ, 125×4 mm Running agent/gradient/flow Acetonitrile/acetic acid 0.2 and/or 2%, 1 ml/min Detection: UV 420 nm
The relevant straight calibration line was respectively determined with the individual compounds. […] The content of 20 μl each of the saturated solutions was determined by means of HPLC.

[2] = system: Epstein-Barr virus; test: Inhibition of EBV induction (reactivation) in Raji-DR-LUC cells, luciferase activity; type: cell-based; details: 50,000 Raji-DR cells, 10 nM TPA, 72 hours
Description: The current studies were carried out with Raji-DR-LUC cells.
For this purpose, 50,000 Raji-DR cells were treated with 10 nM TPA minus/plus inhibitor (various concentrations) in a volume of 100 μl in a CO2 incubator for 72 hours. Following washing with PBS, the cells are lyzed; the luciferase activity is determined in luciferase buffer (20 mM tricins, 8 mM MgSO4, 0.1 mM EDTA, 30 mM DTE, pH 7.8) with luciferin/CoA ATP as a substrate in an always equal amount of cell lyzate. The induced luciferase activity per μg protein is determined in comparison with a calibration curve having an authentic luciferase. Inhibiting agents of EBV induction result in an induction of luciferase reduced as compared with the TPA control.

[3] = system: Raji cells; test: Uptake in Raji cells by fluorescence microscopy; type: cell-based
Description: These studies were carried out by means of fluorescence microscopy, since curcumin and its two derivatives show fluorescence. […] Aliquots of the cells in medium were placed by pipetting onto poly-L-lysin-coated slides (to adhere the cells); the cells were covered with a cover glass after 30 minutes and stimulated by an appropriate filter using U.V. light.

[4] = system: granulocytes (PMN) from human blood; test: Inhibition of the TPA-stimulated "oxygen burst" of granulocytes (chemiluminescence); type: cell-based; details: 100,000 granulocytes, TPA 100 nM, luminol and/or lucigenin, CL integral over one hour
Description: These studies were carried out by means of the inhibition of the “oxygen burst” of granulocytes (PMN) from human blood according to Hergenhahn et al. (1991) J. Cancer Res. Clin. Oncol. 117, 385-395, and Bouvier, Hergenhahn et al. (1993) Carcinogenesis 14, 1573-8. The granulocyte fraction from heparinized blood is enriched by agglutination of the erythrocytes with 2.5% dextran in PBS (30 min. at room temperature), freed from residual erythrocytes by lysis and used after washing with PBS in the test. In a total volume of 1 ml, 100,000 granulocytes each are admixed with luminol and/or lucigenin and heated to 37° C. in the chemiluminescence (CL) measuring device Biolumat LB 953 (EG&G Berthold, Wildbad); the cells are then stimulated with TPA at a final concentration of 100 nM. The CL curves are tracked for one hour; the integral underneath the curve is used as a standard for chemiluminescence.
When inhibitory substances are used, a concentration-dependent inhibitory effect results which manifests itself as a late rise, reduced amplitude of the maximum and partially as an early drop of the peak.

[5] = system: cell cultures; details: described in the literature; cited from earlier work
[6] = Raji cells, 3 hours, 15 μM, image analysis

Compound	water solubility [1] [µg/mL]	EBV inhibitory effect, rank order in series [2]	fluorescence of cells (cell-associated compound) [3, 6]	antioxidative effect, rank order in series [4]	factor by which cell fluorescence was reduced (versus curcumin) [3, 6]	solubility ([1]; thermodynamic from solid) [µg/mL]	concentration in the medium at which chemopreventive effects occurred [5]	time of maximum uptake in Raji cells ([3]; preliminary tests) [h]
8,8′-bis-(B-D-glucopyranosyl)-curcumin [Curcumin diglucoside]	> 10700	curcumin>curcumin monoglucoside>curcumin diglucoside	just visible	curcumin >>curcumin monoglucoside curcumin diglucoside	–	–	–	–
8-(β-D-glucopyranosyl)curcumin [Curcumin monoglucoside]	13.2 ± 0.9	curcumin>curcumin monoglucoside>curcumin diglucoside	–	curcumin >>curcumin monoglucoside curcumin diglucoside	10-100	–	–	–
COc1cc(C=CC(=O)CC(=O)C=Cc2ccc(O)c(OC)c2)ccc1O [Curcumin, 1,7-bis(4-hydroxy-3-methoxyphenyl)-1,6-heptadiene-3,5-dione, reference compound]	–	curcumin>curcumin monoglucoside>curcumin diglucoside	very bright fluorescence	curcumin >>curcumin monoglucoside curcumin diglucoside	–	4 (≈ 10.9 µM)	at least 10 μM	2 to 3
